Earlier results, collected in US7759361B2, “Azabicyclooctan-3-one derivatives and use thereof” (Aprea AB, priority 2004, dated 2010).

System: cells carrying mutant p53
Conditions: disclosed in WO 02/24692

For `O=C1C2CCN(CC2)C1(CO)CO` [PRIMA-1, 2,2-bis(hydroxymethyl)-1-azabicyclo[2.2.2]octan-3-one], the induction of apoptosis is listed as “able to induce apoptosis”.
